According to the kinase profiling compilation of Christmann-Franck et al. (2016):

Tests used:
Details in all cases: compound 10.0 µM
EPHA6 (human) = EPHA6 (human) (UniProt Q9UF33)
MAPK12 (human) = MAPK12 (human) (UniProt P53778)
DCLK2 (human) = DCLK2 (human) (UniProt Q8N568)
PIM2 (human) = PIM2 (human) (UniProt Q9P1W9)
PAK4 (human) = PAK4 (human) (UniProt O96013)
PAK7 (human) = PAK7 (human) (UniProt Q9P286)
NLK (human) = NLK (human) (UniProt Q9UBE8)
GSK3B (human) = GSK3B (human) (UniProt P49841)
FGFR2 (human) = FGFR2 (human) (UniProt P21802)
[1] = tested on: RET (human), P07949 [V804M]
LIMK2 (human) = LIMK2 (human) (UniProt P53671)
YES1 (human) = YES1 (human) (UniProt P07947)
MARK3 (human) = MARK3 (human) (UniProt P27448)
TBK1 (human) = TBK1 (human) (UniProt Q9UHD2)
CDK11B (human) = CDK11B (human) (UniProt P21127)
DDR2 (human) = DDR2 (human) (UniProt Q16832)
Sequence of DDR2 (human) (Q16832 whole entry, looked up): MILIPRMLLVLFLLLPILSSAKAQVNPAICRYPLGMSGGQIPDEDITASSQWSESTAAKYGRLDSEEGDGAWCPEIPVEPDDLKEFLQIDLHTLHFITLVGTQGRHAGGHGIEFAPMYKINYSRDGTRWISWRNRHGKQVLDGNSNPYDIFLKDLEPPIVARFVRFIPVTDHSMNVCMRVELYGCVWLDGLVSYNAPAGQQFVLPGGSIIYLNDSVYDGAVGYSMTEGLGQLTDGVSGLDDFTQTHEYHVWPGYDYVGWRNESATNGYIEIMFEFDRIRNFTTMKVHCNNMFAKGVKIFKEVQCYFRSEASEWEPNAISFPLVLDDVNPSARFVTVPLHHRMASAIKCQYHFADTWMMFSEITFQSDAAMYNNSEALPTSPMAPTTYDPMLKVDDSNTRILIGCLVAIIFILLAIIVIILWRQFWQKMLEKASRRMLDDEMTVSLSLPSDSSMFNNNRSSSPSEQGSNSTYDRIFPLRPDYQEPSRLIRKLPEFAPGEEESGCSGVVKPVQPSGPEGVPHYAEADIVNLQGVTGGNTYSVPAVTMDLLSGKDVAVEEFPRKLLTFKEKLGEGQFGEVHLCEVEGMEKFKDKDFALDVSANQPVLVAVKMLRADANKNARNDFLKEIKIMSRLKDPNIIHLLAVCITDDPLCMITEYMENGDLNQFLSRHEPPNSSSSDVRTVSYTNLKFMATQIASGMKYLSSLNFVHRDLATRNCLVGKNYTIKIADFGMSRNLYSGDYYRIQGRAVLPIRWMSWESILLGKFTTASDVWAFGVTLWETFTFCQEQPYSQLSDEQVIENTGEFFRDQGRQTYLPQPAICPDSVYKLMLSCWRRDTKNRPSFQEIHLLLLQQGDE

BMP2K (human) = BMP2K (human) (UniProt Q9NSY1)
CDK2 (human) = CDK2 (human) (UniProt P24941)
CSNK1A1L (human) = CSNK1A1L (human) (UniProt Q8N752)
CSNK1G2 (human) = CSNK1G2 (human) (UniProt P78368)
[2] = tested on: EIF2AK4 KD2 (human), Q9P2K8 [S808G]
CAMK4 (human) = CAMK4 (human) (UniProt Q16566)
Sequence of CAMK4 (human) (Q16566 whole entry, looked up): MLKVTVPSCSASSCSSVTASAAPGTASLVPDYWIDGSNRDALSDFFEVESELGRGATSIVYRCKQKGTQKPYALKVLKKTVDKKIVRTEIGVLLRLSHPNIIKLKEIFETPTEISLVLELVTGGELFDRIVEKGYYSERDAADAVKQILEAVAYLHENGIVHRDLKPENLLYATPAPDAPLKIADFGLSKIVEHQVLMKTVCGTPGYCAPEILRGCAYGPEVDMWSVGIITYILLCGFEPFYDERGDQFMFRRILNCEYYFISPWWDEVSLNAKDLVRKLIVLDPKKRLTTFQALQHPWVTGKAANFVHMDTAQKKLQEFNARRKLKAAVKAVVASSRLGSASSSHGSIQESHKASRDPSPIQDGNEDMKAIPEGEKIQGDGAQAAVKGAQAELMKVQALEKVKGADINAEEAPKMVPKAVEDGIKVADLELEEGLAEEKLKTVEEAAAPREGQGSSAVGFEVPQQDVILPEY

STK10 (human) = STK10 (human) (UniProt O94804)
STK32A (human) = STK32A (human) (UniProt Q8WU08)
CAMK2A (human) = CAMK2A (human) (UniProt Q9UQM7)
BLK (human) = BLK (human) (UniProt P51451)
Sequence of BLK (human) (P51451 whole entry, looked up): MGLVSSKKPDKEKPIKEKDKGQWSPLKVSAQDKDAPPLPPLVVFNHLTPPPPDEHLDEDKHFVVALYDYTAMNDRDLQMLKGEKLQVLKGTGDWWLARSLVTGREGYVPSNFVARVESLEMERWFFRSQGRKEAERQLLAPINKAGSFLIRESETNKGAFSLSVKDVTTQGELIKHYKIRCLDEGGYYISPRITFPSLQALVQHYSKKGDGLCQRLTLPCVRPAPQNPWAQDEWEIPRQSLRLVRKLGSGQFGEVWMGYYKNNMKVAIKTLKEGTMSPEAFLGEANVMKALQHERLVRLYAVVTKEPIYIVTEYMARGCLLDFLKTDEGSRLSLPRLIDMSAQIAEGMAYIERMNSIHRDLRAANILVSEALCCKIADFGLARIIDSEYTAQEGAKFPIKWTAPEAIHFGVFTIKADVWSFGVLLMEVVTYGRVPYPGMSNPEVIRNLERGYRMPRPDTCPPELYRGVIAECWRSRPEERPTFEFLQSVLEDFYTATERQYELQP

HIPK3 (human) = HIPK3 (human) (UniProt Q9H422)
MAPK7 (human) = MAPK7 (human) (UniProt Q13164)
STK11 (human) = STK11 (human) (UniProt Q15831)
Sequence of STK11 (human) (Q15831 whole entry, looked up): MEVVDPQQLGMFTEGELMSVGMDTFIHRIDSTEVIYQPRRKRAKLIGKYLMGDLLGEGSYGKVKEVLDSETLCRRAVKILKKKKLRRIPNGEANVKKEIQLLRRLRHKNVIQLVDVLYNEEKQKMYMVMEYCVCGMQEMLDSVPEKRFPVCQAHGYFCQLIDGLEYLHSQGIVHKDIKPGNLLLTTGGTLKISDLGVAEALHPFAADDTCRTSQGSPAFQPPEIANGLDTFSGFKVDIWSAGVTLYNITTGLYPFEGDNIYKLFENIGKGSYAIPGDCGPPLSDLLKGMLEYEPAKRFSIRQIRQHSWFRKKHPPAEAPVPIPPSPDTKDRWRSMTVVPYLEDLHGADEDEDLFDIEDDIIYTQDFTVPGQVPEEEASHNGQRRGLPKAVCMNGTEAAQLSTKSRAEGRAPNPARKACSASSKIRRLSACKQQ

MAP3K5 (human) = MAP3K5 (human) (UniProt Q99683)
Sequence of MAP3K5 (human) (Q99683 whole entry, looked up): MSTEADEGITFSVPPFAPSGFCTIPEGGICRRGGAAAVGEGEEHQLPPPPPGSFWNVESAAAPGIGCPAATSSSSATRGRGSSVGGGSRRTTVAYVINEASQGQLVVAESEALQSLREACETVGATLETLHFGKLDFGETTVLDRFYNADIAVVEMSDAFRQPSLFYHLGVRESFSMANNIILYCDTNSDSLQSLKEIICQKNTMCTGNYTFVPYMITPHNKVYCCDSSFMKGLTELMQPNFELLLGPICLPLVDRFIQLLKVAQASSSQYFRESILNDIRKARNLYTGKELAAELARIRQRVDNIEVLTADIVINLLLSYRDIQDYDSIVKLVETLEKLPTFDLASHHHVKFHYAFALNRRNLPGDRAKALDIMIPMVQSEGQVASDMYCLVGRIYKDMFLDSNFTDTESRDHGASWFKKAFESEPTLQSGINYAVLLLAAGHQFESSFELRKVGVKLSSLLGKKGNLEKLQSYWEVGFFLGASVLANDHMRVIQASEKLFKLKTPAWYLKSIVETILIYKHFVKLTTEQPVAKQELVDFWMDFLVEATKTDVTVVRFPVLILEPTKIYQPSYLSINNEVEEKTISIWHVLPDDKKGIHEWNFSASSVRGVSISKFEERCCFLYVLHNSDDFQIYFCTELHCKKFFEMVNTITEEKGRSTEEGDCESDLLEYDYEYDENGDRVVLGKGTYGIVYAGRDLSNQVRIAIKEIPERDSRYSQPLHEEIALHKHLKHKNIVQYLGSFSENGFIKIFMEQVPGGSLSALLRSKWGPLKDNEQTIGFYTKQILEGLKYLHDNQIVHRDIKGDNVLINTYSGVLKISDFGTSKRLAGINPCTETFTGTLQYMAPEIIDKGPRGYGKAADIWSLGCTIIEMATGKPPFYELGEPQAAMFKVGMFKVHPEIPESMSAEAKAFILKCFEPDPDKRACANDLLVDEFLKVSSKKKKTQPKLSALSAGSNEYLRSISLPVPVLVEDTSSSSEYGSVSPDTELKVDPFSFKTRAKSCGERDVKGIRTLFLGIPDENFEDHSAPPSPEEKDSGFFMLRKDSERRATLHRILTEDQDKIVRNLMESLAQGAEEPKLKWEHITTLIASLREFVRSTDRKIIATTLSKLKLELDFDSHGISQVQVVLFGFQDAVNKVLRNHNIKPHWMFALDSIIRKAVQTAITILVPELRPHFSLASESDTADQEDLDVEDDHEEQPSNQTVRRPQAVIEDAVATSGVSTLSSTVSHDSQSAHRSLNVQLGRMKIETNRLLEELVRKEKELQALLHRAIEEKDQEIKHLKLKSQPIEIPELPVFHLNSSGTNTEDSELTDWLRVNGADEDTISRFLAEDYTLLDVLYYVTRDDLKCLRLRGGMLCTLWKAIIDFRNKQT

DSTYK (human) = DSTYK (human) (UniProt Q6XUX3)
MAP3K4 (human) = MAP3K4 (human) (UniProt Q9Y6R4)
CAMKK2 (human) = CAMKK2 (human) (UniProt Q96RR4)
MAP3K6 (human) = MAP3K6 (human) (UniProt O95382)
RPS6KA5 KD1 (human) = RPS6KA5 KD1 (human) (UniProt O75582)
CDKL1 (human) = CDKL1 (human) (UniProt Q00532)
CDK9 (human) = CDK9 (human) (UniProt P50750)
LTK (human) = LTK (human) (UniProt P29376)
MAP4K5 (human) = MAP4K5 (human) (UniProt Q9Y4K4)
PRKCH (human) = PRKCH (human) (UniProt P24723)
MAPK1 (human) = MAPK1 (human) (UniProt P28482)
Sequence of MAPK1 (human) (P28482 whole entry, looked up): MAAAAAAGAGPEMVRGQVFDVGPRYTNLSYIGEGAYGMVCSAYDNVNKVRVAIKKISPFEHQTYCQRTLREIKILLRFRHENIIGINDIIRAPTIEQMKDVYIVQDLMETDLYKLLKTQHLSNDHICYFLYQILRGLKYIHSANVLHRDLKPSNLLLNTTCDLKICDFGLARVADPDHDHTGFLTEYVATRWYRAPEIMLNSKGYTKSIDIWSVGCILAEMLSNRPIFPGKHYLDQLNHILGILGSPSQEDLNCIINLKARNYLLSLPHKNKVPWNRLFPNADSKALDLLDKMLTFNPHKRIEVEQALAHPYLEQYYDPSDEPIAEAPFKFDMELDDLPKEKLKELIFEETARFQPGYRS

Sequence of DCLK2 (human) (Q8N568 whole entry, looked up): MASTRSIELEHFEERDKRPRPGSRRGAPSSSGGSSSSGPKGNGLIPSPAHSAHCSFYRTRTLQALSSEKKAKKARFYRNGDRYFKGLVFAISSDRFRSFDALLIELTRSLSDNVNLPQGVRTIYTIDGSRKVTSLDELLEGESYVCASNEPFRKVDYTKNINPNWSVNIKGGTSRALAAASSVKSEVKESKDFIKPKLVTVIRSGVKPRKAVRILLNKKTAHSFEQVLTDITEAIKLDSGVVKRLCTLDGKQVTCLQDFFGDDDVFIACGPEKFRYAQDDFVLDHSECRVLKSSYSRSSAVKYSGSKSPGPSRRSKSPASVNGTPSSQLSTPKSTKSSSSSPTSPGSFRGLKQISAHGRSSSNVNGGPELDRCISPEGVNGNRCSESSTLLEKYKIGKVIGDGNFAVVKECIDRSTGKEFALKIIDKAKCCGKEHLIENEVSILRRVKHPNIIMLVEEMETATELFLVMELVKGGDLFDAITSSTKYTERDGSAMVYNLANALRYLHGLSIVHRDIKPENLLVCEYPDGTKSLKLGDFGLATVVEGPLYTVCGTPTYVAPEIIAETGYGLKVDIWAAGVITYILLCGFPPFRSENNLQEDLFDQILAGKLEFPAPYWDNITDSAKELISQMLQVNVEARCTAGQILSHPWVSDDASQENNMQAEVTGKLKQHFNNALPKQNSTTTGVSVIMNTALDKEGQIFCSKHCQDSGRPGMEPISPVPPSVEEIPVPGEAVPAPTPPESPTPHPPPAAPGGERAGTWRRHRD

## CNC(=O)c1cc(Oc2ccc(NC(=O)Nc3ccc(Cl)c(C(F)(F)F)c3)cc2)cc[n+]1[O-]
EPHA6 (human)
  per cent of control: 6.6%
MAPK12 (human)
  per cent of control: 0.1%
DCLK2 (human)
  per cent of control: 87%
PIM2 (human)
  per cent of control: 100%
PAK4 (human)
  per cent of control: 100%
PAK7 (human)
  per cent of control: 82%
NLK (human)
  per cent of control: 11%
GSK3B (human)
  per cent of control: 79%
FGFR2 (human)
  per cent of control: 8.9%
[1]
  per cent of control: 0%
LIMK2 (human)
  per cent of control: 59%
YES1 (human)
  per cent of control: 68%
MARK3 (human)
  per cent of control: 86%
TBK1 (human)
  per cent of control: 100%
CDK11B (human)
  per cent of control: 100%
DDR2 (human)
  per cent of control: 19%
BMP2K (human)
  per cent of control: 100%
CDK2 (human)
  per cent of control: 1.8%
CSNK1A1L (human)
  per cent of control: 100%
CSNK1G2 (human)
  per cent of control: 100%
[2]
  per cent of control: 70%
CAMK4 (human)
  per cent of control: 54%
STK10 (human)
  per cent of control: 0%
STK32A (human)
  per cent of control: 92%
CAMK2A (human)
  per cent of control: 96%
BLK (human)
  per cent of control: 11%
HIPK3 (human)
  per cent of control: 5.1%
MAPK7 (human)
  per cent of control: 65%
STK11 (human)
  per cent of control: 100%
MAP3K5 (human)
  per cent of control: 89%
DSTYK (human)
  per cent of control: 68%
MAP3K4 (human)
  per cent of control: 93%
CAMKK2 (human)
  per cent of control: 68%
MAP3K6 (human)
  per cent of control: 64%
RPS6KA5 KD1 (human)
  per cent of control: 59%
CDKL1 (human)
  per cent of control: 45%
CDK9 (human)
  per cent of control: 73%
LTK (human)
  per cent of control: 73%
MAP4K5 (human)
  per cent of control: 0.45%
PRKCH (human)
  per cent of control: 84%
MAPK1 (human)
  per cent of control: 100%

## CNC(=O)c1cc(Oc2ccc(NC(=O)Nc3ccc(Cl)c(C(F)(F)F)c3)cc2)ccn1
EPHA6 (human)
  per cent of control: 1.6%
MAPK12 (human)
  per cent of control: 42%
DCLK2 (human)
  per cent of control: 95%
PIM2 (human)
  per cent of control: 89%
PAK4 (human)
  per cent of control: 100%
PAK7 (human)
  per cent of control: 100%
NLK (human)
  per cent of control: 19%
GSK3B (human)
  per cent of control: 92%
FGFR2 (human)
  per cent of control: 6.4%
[1]
  per cent of control: 0%
LIMK2 (human)
  per cent of control: 53%
YES1 (human)
  per cent of control: 41%
MARK3 (human)
  per cent of control: 86%
TBK1 (human)
  per cent of control: 100%
CDK11B (human)
  per cent of control: 93%
DDR2 (human)
  per cent of control: 13%
BMP2K (human)
  per cent of control: 65%
CDK2 (human)
  per cent of control: 15%
CSNK1A1L (human)
  per cent of control: 100%
CSNK1G2 (human)
  per cent of control: 100%
[2]
  per cent of control: 60%
CAMK4 (human)
  per cent of control: 42%
STK10 (human)
  per cent of control: 0%
STK32A (human)
  per cent of control: 100%
CAMK2A (human)
  per cent of control: 93%
BLK (human)
  per cent of control: 28%
HIPK3 (human)
  per cent of control: 1.2%
MAPK7 (human)
  per cent of control: 81%
STK11 (human)
  per cent of control: 98%
MAP3K5 (human)
  per cent of control: 100%
DSTYK (human)
  per cent of control: 100%
MAP3K4 (human)
  per cent of control: 94%
CAMKK2 (human)
  per cent of control: 100%
MAP3K6 (human)
  per cent of control: 72%
RPS6KA5 KD1 (human)
  per cent of control: 77%
CDKL1 (human)
  per cent of control: 75%
CDK9 (human)
  per cent of control: 62%
LTK (human)
  per cent of control: 76%
MAP4K5 (human)
  per cent of control: 1.5%
PRKCH (human)
  per cent of control: 89%
MAPK1 (human)
  per cent of control: 100%
